Results published in article PMC6838876 (Heliyon, 2019).
Marks after values point to notes of the source that are not given here.

How the values were obtained:
[1] = Urinary excretion rate after oral gavage to non-fasted rats (HPLC of urine, free and conjugated forms); assay type: in vivo, Male Wistar rats; settings: 40 mg/kg BW gavage; for Total urinary excretion rate at 48 h: all free and conjugated HAs
Protocol: The urine samples were stored at -80 °C until analysis. The rats were fed the AIN-93M diet throughout the experiment. This study was approved by the Animal Care Committee of Kindai University (permit number KABT-24-002), and the animals were maintained in accordance with the guidelines. Sample size, dose, and duration of urine collection were determined on the basis of our preliminary experiments.
The HA composition in urine was determined by the method described by Zhao et al. with a modification. […] The urine sample (20 μL) was added to 360 μL of acetic acid buffer (pH 5.0) containing 10 μg/mL sinapinic acid (internal standard) and 20 μL of acetic acid buffer (pH 5.0). The mixed solution was filtered through a 0.20 μm disposable syringe filter unit. The filtrate was analyzed by HPLC to quantify free forms of the HAs. Enzymatic hydrolysis was used to determine conjugated forms (glucuronidated and/or sulfated forms). The urine sample (20 μL) was added to 360 μL of acetic acid buffer (pH 5.0) containing 10 μg/mL sinapinic acid (internal standard) and 20 μL of β-glucuronidase type H-2 (containing both β-glucuronidase and sulfatase activity). […] The mixture was saturated with nitrogen gas and incubated at 37 °C for 2 h, followed by filtration through a 0.20 μm disposable syringe filter unit. The filtrate was analyzed by HPLC and the total amount of HAs (free forms and conjugated forms) was quantified. The conjugated HA levels were calculated by subtracting the amount of HA free forms from the total amount of HAs. […] The separation was performed using a 0.1% (v/v) trifluoroacetic acid–methanol solution (75:25, v/v) as the mobile phase at a flow rate of 1.0 mL/min at 40 °C. The injection volume was 10 μL. p-Coumaric acid was detected at 309 nm and the other HAs as well as sinapinic acid were detected at 325 nm based on the maximum absorbance. The urinary excretion rate was calculated as the percentage of the dose (mol/mol).

[2] = rats fed supplemented diet; cited from earlier work
[3] = parameters: method as in PMID 12097677, PMID 12730422; settings: cited from earlier work
[4] = parameters: method as in PMID 16608213; settings: fasted rats, cited from earlier work

SMILES: O=C(O)/C=C/c1ccc(O)c(O)c1 [Caffeic acid, caffeic acid]
- Caffeic acid urinary excretion rate ([1]; urine 0-6 h): 7.1 % of the dose

SMILES: O=C(/C=C/c1ccc(O)c(O)c1)O[C@@H]1C[C@](O)(C(=O)O)C[C@@H](O)[C@H]1O [Chlorogenic acid, chlorogenic acid]
- Chlorogenic acid excreted in the urine at 48 h ([1]; urine 0-48 h, free form, mean ± SE n = 4, 40 mg/kg): 0.04 ± 0.005^a % of the dose
- Chlorogenic acid excreted in the urine at 48 h ([1]; urine 0-48 h, free form, mean ± SE n = 4, listed as chlorogenic acid, 40 mg/kg): 0.04 % of the dose
- Urinary excretion of chlorogenic acid or the total amount of caffeic, ferulic, and isoferulic acids [2]: less than 1 % of the chlorogenic acid intake

SMILES: COc1cc(/C=C/C(=O)O)ccc1O [Ferulic acid, ferulic acid]
- Total urinary excretion rate at 48 h ([1]; mean ± SE n = 4, 40 mg/kg): 73.2 ± 2.1 % of the dose
- Total urinary excretion rate at 48 h ([1]; mean ± SE n = 4, listed as ferulic acid, 40 mg/kg): 73.2 % of the dose
- Ferulic acid excreted in the urine at 48 h ([1]; urine 0-48 h, free form, mean ± SE n = 4): 3.01 ± 0.38^a % of the dose
- Ferulic acid conjugates excreted in the urine at 48 h ([1]; urine 0-48 h, mean ± SE n = 4): 70.2 ± 6.8^b % of the dose
- Ferulic acid conjugates urinary excretion rate ([1]; urine 0-6 h): 64.1 % of the dose
- Ferulic acid urinary excretion rate ([1]; urine 0-6 h): 3.0 % of the dose
- Percentage of conjugates in the total urinary excretion ([1]; urine at 48 h): 96%
- Ingested ferulic acid recovered as conjugated forms in the urine [3]: 50–70%

SMILES: O=C(O)/C=C/c1ccc(O)cc1 [p-Coumaric acid, p-coumaric acid]
- Ingested p-coumaric acid found in the urine as an intact form ([4]; gavage): 23%
- Time after gavage within which the majority of p-coumaric acid was detected in urine [4]: ≤ 4 h
- p-Coumaric acid urinary excretion rate ([1]; urine 0-6 h): 14.2 % of the dose
